Patent US10253002B2, “Compounds and methods of treating infections” (Neoculi Pty Ltd., priority 2013, dated 2019)
Values after ≈ are worked out from the molar mass of the structure shown. One block for each molecule: values may come before it.

How the values were obtained:
S. aureus ATCC 29213 [1] = experiment: MIC testing (CLSI M07-A8, MHB II), Example 2; format: cell-based; details: ATCC29213, Staphylococcus aureus ATCC 29213
S. aureus ATCC 29213 [2] = details: Staphylococcus aureus ATCC 29213; CLSI-established; cited from earlier work
[3] = system: protein synthesis in S. aureus ATCC 29213; experiment: Macromolecular synthesis assay: protein synthesis ([3H] leucine); format: cell-based, Staphylococcus aureus; details: 8 fold the MIC (2 μg/mL)
Procedure: Cells were grown at 35° C. overnight on Trypticase Soy agar. A colony from the plate was used to inoculate 10 ml of Mueller Hinton broth II (MHBII), and the culture was grown to early exponential growth phase (OD600==0.2 to 0.3) while incubating in a shaker at 35° C. and 200 rpm.
When cells reached early exponential phase, 100 μL of culture was added to triplicate wells containing various concentrations of test compound or control antibiotics (5 μL) at 20× the final concentration in 100% DMSO. A 5% DMSO treated culture served as the “no drug” control for all experiments. Cells were added in MHBII at 105% to account for the volume of drug added to each reaction or in M9 minimal medium for protein synthesis reactions. Following 15 min incubation at room temperature, either [^3H] thymidine (DNA synthesis), [^3H] uridine (RNA synthesis) or [^3H] leucine (protein synthesis) was added at 0.5-1.0 μCi per reaction, depending on the experiment. Reactions were allowed to proceed at room temperature for 15-30 min and then stopped by adding 12 μL of cold 5% trichloroacetic acid (TCA) or 5% TCA/2% casamino acids (protein synthesis only). […] After washing three times with 5 ml of cold 5% TCA, the filters were rinsed two times with 5 mL 100% ethanol, allowed to dry, and then counted using a Beckman LS3801 liquid scintillation counter.

Escherichia coli = experiment: Broth microdilution MIC, Example 7 (NCL812 and analogues); format: cell-based; details: E. coli; 24 hours; duplicate lines per compound
[4] = Bioassay ranking of the analogues tested; details: M + R (MRSA and VRE combined)
Pseudomonas aeruginosa = experiment: Broth microdilution MIC, Example 7 (NCL812 and analogues); format: cell-based; details: P. aeruginosa; 24 hours; duplicate lines per compound
VRE = experiment: as above; format: cell-based, Enterococcus spp.
Method in brief: (§1)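 Turbidity read visually and then at 600 nm defined the MIC (μg/ml), comparing drug-containing wells with a growth-control well lacking antimicrobial. Testing followed the CLSI broth microdilution method, in duplicate, using two strains per organism group.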

[5] = Release from Formulation B, Franz diffusion cells; format: physicochemical; details: absolute ethanol receptor, 32±1° C., up to 24 hours
Procedure: Franz diffusion cells were utilized to quantify the release rate of NCL 812 and NCL099 from its topical formulations. Five milliliters of absolute ethanol, which was chosen as the desired release medium, was loaded into the receptor chamber. Temperature of the receptor fluid was kept constant, at 32±1° C. using a water jacket. Acetyl cellulose membranes, with pore size of 0.45 μm (Pall Corporation) was selected and placed between donor and receptor chamber. Followed by that, a number of test samples (Formulation B) was loaded into the donor chamber. One milliliter of receptor fluid was collected at regular time intervals of 0.25, 0.50, 0.75, 1, 2, 3, 4, 5, 6, 7, 8 and 24 hours through the sampling port. One milliliter of fresh absolute ethanol was immediately returned to the receptor chamber. UV-HPLC was utilized to analyse the content of the receptor fluids attained.

MRSA [6] = experiment: Broth microdilution MIC, Example 7 (NCL812 and analogues); format: cell-based, Staphylococcus aureus
Method in brief: as §1

Staphylococcus aureus = experiment: Mouse skin wound infection model, topical treatment; format: in vivo, mice; details: 14 treatments
From the text: Preliminary studies prior to the conduct of the current study established a new method of skin infection arising from a detailed study of the models mentioned above. Briefly, study mice are anaesthetised, a patch of dorsal skin is clipped to reveal the skin and a circular area of skin is removed with a hand held punch, leaving a wound on the dorsum with a central cavity. The wound is infected with a known number of the challenge organism. Approximately four to six hours after infection, the wound is either treated topically with a vehicle formulation or an active formulation. The infected skin wound is retreated every 12 hours for a total of 14 treatments. Mice are humanely euthanased, the area of the original infected wound is dissected and removed and its bacterial content quantified by standard microbiologic tests. In this way, the change in bacterial concentration due to treatment with the active formulation can be readily determined by examining the reduction in bacterial burden compared with the vehicle control. Fresh cultures of bacteria (Staphylococcus aureus) were grown on Sheep Blood Agar at 37° C. for 16-18 hours. A few typical colonies were selected and suspended in 10 ml of Tryptic Soy Broth and incubated overnight in a shaking incubator (240 rpm) at 37° C. The overnight suspension was vortexed and diluted (1:100) in fresh Tryptic soy broth (100 μl [0.1 ml] in 9.9 ml broth). The fresh suspension was incubated for 3 hours in a shaking incubator (as above) in order to obtain mid-logarithmic phase bacteria. Bacteria were pelleted through centrifugation at 7,500 rpm for 10 mins. Broth supernatant was removed and bacteria suspended in 10 ml Phosphate Buffered Saline (PBS). These steps were repeated a further two times. The density of the suspension was checked by measuring absorbance at 600 nm, using a spectrophotometer with saline as a blank, to confirm the target density at a reading of approximately 0.100, consistent with a bacterial density of 2.5×10^7 CFU/ml. The suspension was placed into a rack placed into a lockable transport box with an ice brick to maintain refrigeration during transport, followed by storage in cool room upon arrival at the mouse skin infection laboratory. Final suspension was mixed thoroughly before inoculating the skin wounds created in mice. […] Eyes of each anaesthetised mouse were covered with veterinary eye lubricant in order to prevent corneal dehydration. Each mouse removed from induction chamber and placed onto surgical area, in front of individual aesthetic nose cone. While under anaesthesia each mouse was monitored for assessment of depth of anaesthesia (response to pain, blink reflex, skeletal muscle tone) and respiratory and cardiac function. Back skin hair was shaved from surgical area with mechanical clippers. […] Once the iodine solution was dry, a subcutaneous injection of the nonsteroidal anti-inflammatory agent meloxicam was administered. Dorsal skin was pinched gently to allow creation of a circular full-thickness wound using ear punch/biopsy punch. […] Once the bacterial suspension was dry, mice were placed into individual recovery boxes labelled with the mouse number. The time of inoculation was recorded. Initial body weights of each mouse were recorded on the appropriate score sheet. Mice recovered to full consciousness within 5 minutes. Recovered mice were returned to individual housing and monitored hourly for post-surgical or anaesthetic complications. […] Each ointment container was weighted prior to administration and the weight recorded. Each mouse was carefully restrained. […] The weight of the ointment container post-administration was recorded. […] At the end of the 7 day skin wound assessment period, all test mice were euthanased prior to wound collection for post mortem examination. The skin wound was dissected from the dorsum of each mouse. The sample was placed in a sample tube and weighed before 1 ml PBS and sterile tissue homogenisation beads were added. […]

MRSA [7] = details: within an hour of exposure to a concentration equivalent to the Cmax; McKay et al. (2009); cited from earlier work

MIC (S. aureus ATCC 29213 [1]): 4 µg/mL (≈ 11.9 µM)
SMILES: CC(=O)NC[C@H]1CN(c2ccc(N3CCOCC3)c(F)c2)C(=O)O1 [Linezolid]
Quality control range for linezolid (MIC) (S. aureus ATCC 29213 [2]): 1 to 4 µg/mL
inhibition of protein synthesis [3]: approximately 61%

MIC (μg/ml) at 24 hours, E. coli (Escherichia coli): >128 µg/mL
MIC (μg/ml) at 24 hours, P. aeruginosa (Pseudomonas aeruginosa): >128 µg/mL
MIC (μg/ml) at 24 hours, VRE 1 (VRE; VRE 1, 24 hours, duplicate lines per compound): 8 µg/mL
MIC (μg/ml) at 24 hours, VRE 2 (VRE; VRE 2, 24 hours, duplicate lines per compound): 8 µg/mL
release profile from Formulation B [5]: acceptable release profile
MIC (μg/ml) at 24 hours, MRSA 1 (MRSA [6]; MRSA 1, 24 hours, duplicate lines per compound): 8 µg/mL
MIC (μg/ml) at 24 hours, MRSA 2 (MRSA [6]; MRSA 2, 24 hours, duplicate lines per compound): 4 µg/mL
SMILES: CC(C)(C)c1ccc(C=NNC(=N)NN=Cc2ccc(C(C)(C)C)cc2)cc1.Cl [NCL099]
M + R [4]: 7 µg/mL
activity against VRE among analogues (VRE; MIC testing, two VRE strains): greatest activity
VRE (VRE; bioassay ranking, VRE): 8 µg/mL
activity against MRSA among analogues (MRSA [6]; MIC testing, two MRSA strains): greatest activity
MRSA (MRSA [6]; bioassay ranking, MRSA): 6 µg/mL
mean colony count per g of tissue, log10 (Staphylococcus aureus; mice, Formulation B 20 mg/g topically every 12 hours, vehicle 6.77): 3.12 log10
mean colony count per g of tissue (Staphylococcus aureus; mice, Formulation B 20 mg/g topically every 12 hours, vehicle 5,888,436): 1,318
% reduction (of colony forming units per gram of tissue versus vehicle) (Staphylococcus aureus; mouse skin wound infected with Staphylococcus aureus, topical ointment (Formulation B, 20 mg/g) every 12 hours, end of 7 day period, relative to vehicle group): 99.98%
Log10 (CFU/g): colony forming units per gram of tissue (Staphylococcus aureus; mouse skin wound infected with Staphylococcus aureus, topical ointment (Formulation B, 20 mg/g) every 12 hours, wound tissue at end of 7 day period, group mean): 3.12 Log10 (CFU/g)

SMILES: CN[C@H](CC(C)C)C(=O)N[C@H]1C(=O)N[C@@H](CC(N)=O)C(=O)N[C@H]2C(=O)N[C@H]3C(=O)N[C@H](C(=O)N[C@H](C(=O)O)c4cc(O)cc(O)c4-c4cc3ccc4O)[C@H](O[C@H]3C[C@](C)(N)[C@@H](O)[C@H](C)O3)c3ccc(c(Cl)c3)Oc3cc2cc(c3O[C@@H]2O[C@H](CO)[C@@H](O)[C@H](O)[C@H]2O[C@H]2C[C@](C)(NCc3ccc(-c4ccc(Cl)cc4)cc3)[C@@H](O)[C@H](C)O2)Oc2ccc(cc2Cl)[C@H]1O [oritavancin]
reduction in viable count (MRSA [7]): 3 log10
